{
  "source": "patent US20140107100A1",
  "about": "“Benzoxazepines as Inhibitors of PI3K/mTOR and Methods of Their Use and Manufacture” (EXELIXIS, INC., priority 2010, published 2014)",
  "key": {"PI3Kα": {"molecular_target": "PI3Kα (Homo sapiens, UniProt P42336)", "sequence (P42336 whole entry)": "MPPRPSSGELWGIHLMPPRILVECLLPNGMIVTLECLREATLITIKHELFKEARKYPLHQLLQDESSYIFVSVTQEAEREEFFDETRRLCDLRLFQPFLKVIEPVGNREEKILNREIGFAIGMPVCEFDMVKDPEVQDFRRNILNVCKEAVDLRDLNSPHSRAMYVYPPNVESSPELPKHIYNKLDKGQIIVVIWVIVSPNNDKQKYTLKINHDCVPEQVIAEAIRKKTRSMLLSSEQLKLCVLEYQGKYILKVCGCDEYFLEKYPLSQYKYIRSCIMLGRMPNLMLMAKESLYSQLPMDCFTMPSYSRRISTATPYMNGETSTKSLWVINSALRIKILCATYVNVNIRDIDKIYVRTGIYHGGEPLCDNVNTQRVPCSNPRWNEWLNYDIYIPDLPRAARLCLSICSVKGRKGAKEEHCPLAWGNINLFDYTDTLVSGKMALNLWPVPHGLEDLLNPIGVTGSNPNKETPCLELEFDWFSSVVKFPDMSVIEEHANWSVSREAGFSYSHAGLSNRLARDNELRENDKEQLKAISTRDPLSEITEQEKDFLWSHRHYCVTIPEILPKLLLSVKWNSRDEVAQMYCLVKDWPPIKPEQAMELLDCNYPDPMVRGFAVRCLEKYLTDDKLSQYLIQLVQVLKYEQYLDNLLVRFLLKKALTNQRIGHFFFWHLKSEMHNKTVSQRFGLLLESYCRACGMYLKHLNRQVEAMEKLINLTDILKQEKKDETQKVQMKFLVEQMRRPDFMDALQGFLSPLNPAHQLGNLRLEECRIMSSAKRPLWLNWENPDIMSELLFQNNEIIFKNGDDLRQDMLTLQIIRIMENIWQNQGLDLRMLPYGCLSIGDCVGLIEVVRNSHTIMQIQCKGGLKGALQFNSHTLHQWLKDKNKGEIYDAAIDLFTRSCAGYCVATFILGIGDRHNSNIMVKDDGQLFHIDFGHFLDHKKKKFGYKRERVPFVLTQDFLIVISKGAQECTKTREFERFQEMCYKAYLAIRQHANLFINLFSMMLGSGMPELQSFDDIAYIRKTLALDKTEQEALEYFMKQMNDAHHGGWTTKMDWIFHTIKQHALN", "sequence (P27986 whole entry partner)": "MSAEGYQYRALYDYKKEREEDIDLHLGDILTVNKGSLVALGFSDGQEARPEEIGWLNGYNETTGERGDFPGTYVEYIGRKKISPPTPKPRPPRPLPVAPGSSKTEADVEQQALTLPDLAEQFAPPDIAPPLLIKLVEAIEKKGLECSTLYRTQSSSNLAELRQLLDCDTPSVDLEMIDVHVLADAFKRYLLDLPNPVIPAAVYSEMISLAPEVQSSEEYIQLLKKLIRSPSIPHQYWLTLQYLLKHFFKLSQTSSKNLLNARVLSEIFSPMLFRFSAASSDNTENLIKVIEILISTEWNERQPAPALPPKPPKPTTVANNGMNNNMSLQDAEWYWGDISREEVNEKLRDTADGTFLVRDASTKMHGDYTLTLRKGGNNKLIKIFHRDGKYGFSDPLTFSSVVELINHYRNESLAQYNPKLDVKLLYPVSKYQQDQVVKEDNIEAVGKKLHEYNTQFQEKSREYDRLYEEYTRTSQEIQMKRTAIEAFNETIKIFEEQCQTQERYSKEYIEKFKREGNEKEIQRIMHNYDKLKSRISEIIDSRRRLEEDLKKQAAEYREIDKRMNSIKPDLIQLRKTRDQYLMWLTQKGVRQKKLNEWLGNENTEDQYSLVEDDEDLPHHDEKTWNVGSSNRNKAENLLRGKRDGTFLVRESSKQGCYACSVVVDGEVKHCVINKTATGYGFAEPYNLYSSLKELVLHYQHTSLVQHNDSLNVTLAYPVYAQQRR", "test": "PI3K biochemical assay, ATP consumption by luciferase-luciferin chemiluminescence", "settings": "3 nM enzyme, 10 μM PIP2, approximately 2 h; read-out: IC50 in the PI3K-alpha assay", "method": "P13Kα activity was measured as the percent of ATP consumed following the kinase reaction using luciferase-luciferin-coupled chemiluminescence. Reactions were conducted in 384-well white, medium binding microliter plates (Greiner). Kinase reactions were initiated by combining test compounds. ATP, substrate (PIP2), and kinase in a 20 μL volume in a buffer solution. The standard P13Kalpha assay buffer was composed 50 mM Tris, pH 7.5, 1 mM EGTA, 10 mM MgCl2, 1 mM DTT and 0.03% CHAPS. The standard assay concentrations for enzyme, ATP, and substrate were 3 nM, IpM, and 10 μM, respectively. The reaction mixture was incubated at ambient temperature for approximately 2 h. Following the kinase reaction, a 10 μL aliquot of luciferase-luciferin mix (Promega Kinase-Glo) was added and the chemiluminescence signal measured using a Victor2 or EnVision (Perkin Elmer). Total ATP consumption was limited to 40-60% and IC50 values of control compounds correlate well with literature references. Substituting P13Kα with P13Kβ, […], or PI3Kδ, the inhibitory activity of the compounds for the other isoforms of P13-K were measured. For the P13Kβ and P13Kβ assays, enzyme concentrations were 10 nM and 4 nM. respectively. For the P13γ assay, enzyme concentration was 40 nM, the incubation time was 1 h, and the concentration of MgCl2 in the assay buffer was 5 mM."}, "mTOR/GbL/Raptor (mTORC1)": {"molecular_target": "mTOR/GbL/Raptor (mTORC1) (Homo sapiens, UniProt P42345)", "test": "mTOR/GbL/Raptor (mTORC1) ELISA assay, phosphorylation of 4E-BP1", "format": "biochemical", "settings": "0.2 nM mTORC1, 40 uM ATP, 50 nM NHis-tagged 4E-BP1, 120 minutes; read-out: IC50 in this assay (mTORC1 ELISA)", "procedure,_shortened": "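Phospho-4E-BP1 was quantified by luminescent ELISA (anti-phospho-4E-BP1 IgG, HRP-tagged secondary) after capture of the His-tagged substrate on Ni-chelate plates.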"}},
  "data": [
    {"compound": "CCc1cc(-c2cnc3sc(N)nc3c2)cc2c1OCCN(c1nc(N)nc(C)c1C(C)C)C2", "note": "[Compound 17, 6-{4-[2-amino-6-methyl-5-(1-methylethyl)pyrimidin-4-yl]-9-ethyl-2,3,4,5-tetrahydro-1,4-benzoxazepin-7-yl}[1,3]thiazolo[5,4-b]pyridin-2-amine]", "values": [
      {"measurement": "IC50", "setting": "PI3Kα", "value": "0.5 to 2.5", "unit": "µM"},
      {"measurement": "IC50", "setting": "mTOR/GbL/Raptor (mTORC1)", "value": "≤ 0.1", "unit": "µM"}
    ]}
  ]
}
